Source: paper PMC7603451, “A novel human pluripotent stem cell-based assay to predict developmental toxicity” (Archives of Toxicology, 2020)
Like-named read-outs stand apart in the source and are kept apart here. One block for each molecule: values may come before it.

Experiments:
BIONi010-C EBs = assay: EB volume after exposure, BIONi010-C; assay type: cell-based, human
Protocol: (§1) The average of 32 EBs per condition was analyzed. […] EB size was analysed using a one-way ANOVA without matching and multiple comparisons with Dunnett’s correction.

[1] = system: BIONi010-C hiPSC embryoid bodies differentiating into cardiomyocytes; assay: PluriBeat assay, beat score of EBs, BIONi010-C
Protocol: (§2) Cardiac differentiation was performed as published (Fischer et al. [2018]) with slight modifications. Briefly, hiPSC were harvested from culture dishes with good colony morphology (day 5–6 after split) by removing medium and adding Gibco™ TrypLE™ Select (Thermo Fisher Scientific) for 1–2 min. As soon as single cells appeared at the borders of the colonies, TrypLE was removed by suction and the cells harvested as single cells in mTeSR-ROCK (mTeSR1 with 10 µM Y27632 dihydrochloride). Cells were counted and 5 × 10^4 cells/ml were seeded at 100 µl per well into a 96-well Polystyrene Conical Bottom MicroWell™ Plate (249,952, Thermo Fisher Scientific). The plates were centrifuged at 500g for 5 min at room temperature. After 20 h of incubation, EBs had formed (one EB per well) and cardiac differentiation was induced by exchanging 80 µl medium to D0 medium. All medium recipes are included in supplementary Table 1. After 24 ± 2 h, 80 µl medium was exchanged to TS medium. After 24 ± 2 h, 80 µl medium were exchanged to Wnt medium. After 24 ± 2 h, 80 µl medium was exchanged with TS medium. Three days later (72 ± 2 h), 60 µl medium was exchanged with 80 µl fresh TS medium added per well. The following day beating of the cardiomyocyte containing EBs was scored.
(§3) Test compounds were added to the specific daily differentiation medium before medium exchange on the 96-well plates. Vehicle was kept constant across the plates at 0.1%. Thirty-two EBs were exposed to each concentration in each experiment. On the last day of the assay, the beat score was determined as follows: Each EB was observed until contraction was seen, though for a maximum of 10 s. If no movement was seen, the beat score 0 was given. If the entire area of the sphere contracted, a beat score of 2 was given. Everything in between was given a score of 1.
(§4) The beat score for each condition was determined as the average beat score of the 32 EBs. All experiments were performed in biological triplicates if not stated otherwise. For gene expression analysis and compound testing, data from 32 EBs (= 32 wells each containing one EB) were analyzed for a given concentration or time point.
(§5) IC25 values were defined as absolute IC25 values giving the concentration that inhibits the beat score by 25%. […] Calculations were based on the beat score of > 90 EBs from three independent experiments per cell line.
(§6) The following analysis was performed in the statistical program R-studio: To analyze the impact of the test compounds on the beat score, we performed an ordinal logistic regression using the polr package in R with beat score and concentration as factors on n ≥ 90 EBs from three biological replicates. The LOEC was defined as the lowest observable effect concentration of test compound causing an effect with a p value < 0.05.

[2] = system: IMR90-4 hiPSC embryoid bodies differentiating into cardiomyocytes; assay: PluriBeat assay, beat score of EBs, IMR90-4; details: for effect on beat score: up to maximum concentration tested
Protocol: as §2, §3, §4, §5, §6

mouse ESCs = details: cited from earlier work
IMR90-4 EBs = assay: EB volume after exposure, IMR90-4; assay type: cell-based, human; details: for concentration with effect on EB volume: IMR90-4, last day of assay
Protocol: as §1

[3] = system: IMR90-1 hiPSC embryoid bodies differentiating into cardiomyocytes; assay: PluriBeat assay, beat score of EBs, IMR90-1
Protocol: as §2, §3, §4, §5, §6

[4] = system: EBs made from the three cell lines BIONi010-C, IMR90-1, and IMR90-4; assay: PluriBeat assay, statements without a named cell line
Protocol: as §3
For analysis of the EB size, the EBs were imaged with a light microscope after assessing the beat score. The plates were left at room temperature to decrease the beat rate before imaging, thereby decreasing the risk of false small outliers due to contractions. The images were further analyzed with ImageJ, where the diameter of the individual EBs was measured manually. From this, the volume of each EB was calculated and the average of the controls on each plate set to 100% to calculate the volume (%) for the exposed EBs. The average of 32 EBs per condition was analyzed.

[5] = system: BIONi010-C hiPSC grown in monolayer; assay: Cytotoxicity, CellTiter-Glo 2.0 ATP-based cell viability assay; parameters: species or system human; details: for concentration showing cytotoxicity: human, 48 h
Protocol: Before initiating tests on cardiomyocyte differentiation for test chemicals, cell viability was determined to ascertain that any further testing was done at non-cytotoxic concentrations. On the day of the experiment, 50 µl/well hESC-Qualified Matrigel (354,277, Corning) was added to flat-bottom 96-well plates (Corning) and incubated at 37 °C and 95% humidity until use. BIONi010-C hiPSC were harvested from a […] by Gibco™ TrypLE™ Select (Thermo Fisher Scientific) and a single-cell suspension was prepared in mTeSR™1 serum-free medium (STEMCELL Technologies). Matrigel was removed from plates and a final concentration of 1 × 10^4 cells/well was added. After 24 h, mTESR1 medium was exchanged for fresh medium. Cell were exposed to the test chemicals after another 24 h and for 48 h in total with a vehicle kept constant across the plates at 0.1%. […] Assay reagent (100 µl/well) was added, plates were left on a shaker table for 2 min and successively for 10 min at room temperature. Lysates were transferred to white plates and luminescence was measured (EnSpire, Perkin Elmer).

IMR90-1 EBs = assay: EB volume after exposure, IMR90-1; assay type: cell-based, human; details: for concentration with effect on EB volume: IMR90-1, last day of assay
Protocol: as §1

[6] = cited from earlier work
hiPSC = details: cited from earlier work
hESCs = system: hESCs; parameters: method as in Kameoka et al. [2014]; details: hESC monolayer, 3 days; ref Kameoka et al. [2014]; cited from earlier work
rat embryos = system: rat embryos; parameters: method as in Rettie et al. [1986]; details: ex vivo rat embryos, gestation day 10; ref Rettie et al. [1986]; cited from earlier work
[7] = system: in vitro assays for developmental toxicity; details: previous in vitro developmental toxicity studies, cited from earlier work
[8] = IMR90-4, beat score on last day of assay, lowest concentration with p < 0.05
[9] = human, 8 days (beat score read on the last day of the assay)

SMILES: Fc1ccc([C@]2(Cn3cncn3)O[C@H]2c2ccccc2Cl)cc1 (racemic) [Epoxiconazole, epoxiconazole]
effect on EB volume (BIONi010-C EBs): significantly smaller spheres
LOEC ([1]; BIONi010-C, beat score on last day of assay, lowest concentration with p < 0.05): 5 µM
LOEC [2, 8]: 1.3 µM
concentration at which EBs stopped beating ([2]; human, 7 days): 2.5 µM
embryotoxicity in the mEST (mouse ESCs): weakly embryotoxic
IC50 (mouse ESCs; mEST based on mouse ESCs, ref Dreisig et al. [2013]): 34 µM
effect on EB volume (IMR90-4 EBs): significantly smaller spheres
LOEC ([3]; IMR90-1, beat score on last day of assay, lowest concentration with p < 0.05): 1.3 µM
concentration at which EBs stopped beating ([3]; human, 7 days): 2.5 µM
lowest concentration decreasing the beating (LOEC) ([4]; beat score, cell line not stated): 1.3 µM
proportion of beating cardiac EBs [4, 9]: ~0%
concentration showing cytotoxicity [5]: ≥ 50 µM
effect on EB volume (IMR90-1 EBs): non-significant trend

concentration with significant decrease in EB volume (BIONi010-C EBs; BIONi010-C, last day of assay): ≥ 2.3 µM
effect on beat score ([2]; IMR90-4): non-significant trend
IC25 (absolute inhibition concentration of 25%) with 95% confidence intervals ([2]; human, 7 days): > 36 µM
concentration with effect on EB volume (IMR90-4 EBs): ≥ 18 µM
decrease of EB volume ([4]; human, 7 days, 2.3 µM): ~60%
concentration with effect on EB volume (IMR90-1 EBs): ≥ 2.3 µM
SMILES: O=C1CCC(N2C(=O)c3ccccc3C2=O)C(=O)N1 (stereo not shown) [Thalidomide, thalidomide]
clinical plasma concentrations for therapeutic use ([6]; human, ref Chung et al. [2004], Kodama et al. [2009]): 1 to 6 µM
internal exposure ([6]; regular dose for pregnant women of 200 mg, ref Teo et al. [2004]): 4.7 µM
LOEC ([1]; human, 7 days): 2.3 µM
LOEC [2, 8]: no LOEC could be determined
LOEC ([2]; human, 7 days): > 36 µM
IC50 (hiPSC; original EST protocol, ref Aikawa et al. [2014]): 450 µM
IC50 (hiPSC; ref Aikawa [2020]): 5.5 µM
LOEC ([3]; human, 7 days): 2.3 µM
IC50 (hESCs): 0.5 µM
lowest concentration decreasing the beating (LOEC) [4, 9]: 2.3 µM
effect on viability ([5]; BIONi010-C monolayer, 48 h exposure, 25, 50, 100 and 200 µM): did not reduce viability in any of the concentrations tested
concentration showing cytotoxicity [5]: > 200 µM

effect on EB volume (BIONi010-C EBs; BIONi010-C, last day of assay): did not lead to apparent effects
IC25 (absolute inhibition concentration of 25%) with 95% confidence intervals ([1]; human, 7 days): > 300 µM
IC25 (absolute inhibition concentration of 25%) with 95% confidence intervals ([2]; human, 7 days): > 300 µM
concentration with effect on EB volume (IMR90-4 EBs): 300 µM
IC25 (absolute inhibition concentration of 25%) with 95% confidence intervals ([3]; human, 7 days): > 300 µM
concentration with effect on EB volume (IMR90-1 EBs): 200 µM
SMILES: CCCC(CCC)C(=O)O [Valproic acid, valproic acid]
therapeutic serum levels ([6]; human, ref Dasgupta [2016]): around 700 µM
effect on beat score ([1]; BIONi010-C, up to maximum concentration tested): did not lead to a significant decrease in beat score
LOEC ([1]; human, 7 days): > 300 µM
effect on beat score ([2]; IMR90-4): did not lead to a significant decrease in beat score
LOEC ([2]; human, 7 days): > 300 µM
concentration with toxic effects (rat embryos): 800 µM
IC50 ([7]; ref Aikawa et al. [2014], Shinde et al. [2016]): 868 to 1000 µM
IC50 ([7]; ref Uibel et al. [2010], Palmer et al. [2013], Kameoka et al. [2014], Aikawa [2020]): 3 to 205 µM
effect on beat score ([3]; IMR90-1, up to maximum concentration tested): did not lead to a significant decrease in beat score
LOEC ([3]; human, 7 days): > 300 µM
reduction of viability ([5]; BIONi010-C monolayer, 48 h exposure, 400 µM): more than 20%
concentration showing cytotoxicity [5]: above 300 µM
